What was measured:
[1] = tested on: mice subjected to restraint stress; assay: Novel object recognition after restraint stress (Example 1, Experiment 1); type: in vivo, C57BL/6 mice; conditions: RS mice, 14 days of IN cotinine; p<0.05
Protocol: Mice were treated immediately after the 21 days of immobilization stress (6 h/day) until euthanasia. Mice (n=5-8/condition) received daily treatments with 1. PBS (phosphate buffer saline, pH 7.4) via intranasal (2×12 μl/nostril), 2. PBS via gavage (50 μl); 3. Cotinine dissolved in PBS via oral (gavage, (0.5 mg/kg; Cot 0.5); 4. Cotinine dissolved in PBS via intranasal (Cot IN, 10 mg/ml, 2×12 μl/nostril).
To induce chronic stress, the restraint stress paradigm was used as previously described. Mice are immobilized in 50 ml falcon plastic tubes that were attached to mouse cages. The immobilization proceeded during 6 h from 9:00 AM to 3:00 PM in absence of treatments. Tubes have holes in the opposite side of the tube to allow the animal breathing and urination. Mice were almost completely immobilized for 6 h/day for 21 days after which they were permitted freely to move, eat and drink.
After a habituation step in the OF arena, each mouse was individually placed in the apparatus containing two identical objects located equidistant to each other (familiarization phase) and left to explore the objects for 5 min. Then, mice were returned to their cages and permitted to rest for 30 min. […] The time exploring the two objects was recorded during 5 min. […]

[2] = tested on: mice subjected to fear conditioning; assay: Porsolt test after fear conditioning (Example 1, Experiment 3); type: in vivo, C57BL/6 mice; conditions: FC mice, IN post-treatment; cotinine p<0.01, combination p<0.05
Protocol: Mice were treated via IN 2 hours after fear conditioning and continuously until euthanasia.
Mice (n=5-6/condition) received daily treatments with 1. PBS (phosphate buffer saline, pH 7.4) via intranasal (2×12 μl/nostril), 2. Cotinine dissolved in PBS via intranasal (Cot IN, 10 mg/ml, 2×12 μl/nostril); 3. Cotinine+krill oil both dissolved in PBS via intranasal (Cot IN, 10 mg/ml+KO, 48 mg/ml, 2×12 μl/nostril).
Contextual FC was performed as described. The conditioning chamber used is surrounded by a sound-attenuating box with a camera connected to freeze frame software (MED Associates Inc.), also equipped to provide a background white noise (72 dB). The conditioning chamber (33 cm×20 cm×22 cm) contains in one side a speaker and in the opposite slide has a 24V light. The chamber has a 36-bar insulated shock grid floor. […] Freezing behavior that is defined as the absence of all movement except the one needed for breathing was assessed using the FreezeView Software (MED Associates Inc.).
This test is used to measure the antidepressant effects of drugs, and consists in placing each mouse in a transparent cylinder filled with water at room temperature (RT). […] The immobility time will be recorded during a 15-min and a next day 5-min trial. The time spent by each mouse immobile will be recorded.

[3] = tested on: GFAP; assay: GFAP immunoreactivity and GFAP+ cell density, hippocampus and frontal cortex (Example 2); type: in vivo, C57BL/6 male mice
Protocol: Mice between 2-3 months of age after one week of acclimatization were randomly divided into two groups. Stressed mice were subjected to restraint stress. Control (non-restrained) mice were allowed to move freely during this period. After the stress exposure period, mice were divided into three experimental groups: 1) Non-restrained mice treated with vehicle (PBS, pH 7.4) serving as unstressed controls (n=8); 2) Restrained mice (RS) treated with vehicle (n=8); 3), RS mice treated with 24 μl of a cotinine solution (10 mg/ml in PBS, pH 7.4) via intranasal route of administration (n=6). Treatments were administered daily until euthanasia. After two weeks of treatments mice were behaviorally tested and euthanized (FIG. 10)
For all protein analyses, mice were euthanized and brains removed. Each brain was divided into two hemispheres. The left hemisphere of brains was dissected out to collect the regions of interest and quickly frozen for later analyses. For the immunohistochemical (IHC) analysis the right hemisphere of each mouse brain was placed in 10% formalin in PBS pH 7.4 for 48 h and then embedded in paraffin. Each region of interest was located using Paxinos Atlas as a reference (Paxinos and Franklin, 2004), and serial […] of 4 μm (n≥5/mouse) were collected using the Microtome Leica RM 2125RT and mounted on silanized glass slides.
The analysis of GFAP^+ cells was performed using tissue slices containing the ventral hippocampus (Approx. Bregma −4.08 mm, interaural 4.92 mm) and frontal cortex (Approx. Bregma 3.2 mm, interaural 1.54 mm). Sagittal sections of brains were collected in PBS and processed for GFAP immunoreactivity (IR). Brain slices were immersed in xylene and a decreasing graduation of ethanol baths for hydration. Then, slides were subjected to a standard process of antigenic recovery in buffer citrate pH=6 in a pressurized saucepan (Biocare Medical, Walnut Creek, Calif.) for 30 min. Next, slides were incubated with a solution of 3% hydrogen peroxide to block endogenous peroxidase for 5 min, washed with PBS, and blocked with a horse serum solution (Vectastain Elite ABC, Vector Laboratories, Burlingame, Calif., USA) for 10 min at room temperature (RT). Sections were washed in PBS and incubated for 1 hour (Franklin, 2001) at RT with an antibody against GFAP 1:100 (Sigma). After washing with PBS, sections were incubated with a biotinylated secondary antibody for 10 min. Then, sections were washed with PBS and incubated with the amplifier solution from the Vectastain Elite kit for 10 min at RT. The reaction was visualized using ImmunoDetector DAB (SB Bio Inc., Santa Barbara, Calif., USA). For counterstaining, sections were stained with hematoxylin for 30 seconds (sec), dehydrated in baths of ascending percentages of alcohol solutions and xylene, and mounted with synthetic resin.
For the IR analysis, for each mouse, three digital images were randomly selected at 40× magnifications in the areas of interest (hippocampus and frontal cortex) (n=5-6/condition). […] The determination of the area of the immunolabeling was calculated delimiting the IR areas using the ImageJ software (National Institute of Health, Bethesda, […]., USA). For all analyses, GFAP^+ astrocytes were selected randomly from the frontal cortex and the CA1, CA3 and dentate gyrus regions of the hippocampus and quantified. […]

[4] = cotinine IN administered after RS

CN1C(=O)CC[C@H]1c1cccnc1 [Cotinine, (5S)-1-methyl-5-(3-pyridyl) pyrrolidin-2-one]
number of entries into the new object area (NOR) [1]: increased the number of entries into the new object area to control values | depressive-like behavior (freezing) in the Porsolt test [2]: significant decrease in depressive-like behavior | number of hippocampal GFAP+ cells counted ([3]; Ctrl 144, RS 97): 140 | GFAP IR in the frontal cortex [3, 4]: 90 % of control values | GFAP IR in the hippocampus [3, 4]: 84 % of control value | GFAP+ cell density in hippocampal regions ([3]; restrained mice, CA1 p<0.01, CA2 p<0.05, DG p<0.01): significantly higher in the cotinine-treated restrained mice relative to vehicle-treated restrained mice | GFAP+ cell density in control (non-stressed) mice ([3]; vehicle-treated vs cotinine-treated control mice): No significant differences

Reference: patent US11260050B2, “Combination of cotinine plus antioxidant for treatment-resistant depression and correction of astrocytes functional deficit induced by depression and other neuropathological” (UNIVERSIDAD SAN SEBASTIAN, priority 2017, dated 2022)
